Patent US4608390A, “Lipoxygenase inhibiting compounds” (Abbott Laboratories, priority 1985, dated 1986)

Legend:
Type in all cases: biochemical
12-lipoxygenase = target: T1, 12-lipoxygenase (Homo sapiens, UniProt P18054); test: 12-lipoxygenase inhibition (12-lipoxygenase obtained from human platelets); conditions: for inhibition at 10 µM: read-out: % Inhibition at Indicated Concentration, 12-lipoxygenase, 10 μM; for inhibition at 100 µM: read-out: % Inhibition at Indicated Concentration, 12-lipoxygenase, 100 μM
T1 construct: 12-lipoxygenase obtained from human platelets; from tissue; host or cells: human platelets
T1 sequence (P18054 1-663): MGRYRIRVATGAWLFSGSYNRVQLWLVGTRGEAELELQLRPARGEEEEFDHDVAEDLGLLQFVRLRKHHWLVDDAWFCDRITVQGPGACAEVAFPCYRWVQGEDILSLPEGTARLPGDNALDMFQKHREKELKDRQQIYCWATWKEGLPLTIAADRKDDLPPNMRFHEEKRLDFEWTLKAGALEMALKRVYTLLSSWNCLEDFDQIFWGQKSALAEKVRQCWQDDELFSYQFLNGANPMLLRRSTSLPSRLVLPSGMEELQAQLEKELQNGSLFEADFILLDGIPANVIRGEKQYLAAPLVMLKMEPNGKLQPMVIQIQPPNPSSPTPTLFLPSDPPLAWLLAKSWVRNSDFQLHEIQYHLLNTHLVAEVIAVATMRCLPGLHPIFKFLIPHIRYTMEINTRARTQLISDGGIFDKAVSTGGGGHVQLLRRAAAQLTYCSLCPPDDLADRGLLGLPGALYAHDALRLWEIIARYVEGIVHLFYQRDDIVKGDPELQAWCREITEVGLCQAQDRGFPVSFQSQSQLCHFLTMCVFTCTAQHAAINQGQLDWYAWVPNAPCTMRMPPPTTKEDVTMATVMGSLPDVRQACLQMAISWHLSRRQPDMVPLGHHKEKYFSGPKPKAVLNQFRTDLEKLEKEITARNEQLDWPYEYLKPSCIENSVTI
Method: (§1) The compounds of this invention are potent inhibitors of 5-, 12- and 15-lipoxygenase. An assay to determine 5-lipoxygenase activity was performed in incubations containing various concentrations of the test compound and the 20,000×G supernatant from 7.5×10^6 homogenized RBL-1 cells. Reactions were initiated by the addition of radiolabeled arachidonic acid and terminated by acidification and ether extraction. Reaction products were separated from nonconverted substrate by thin layer chromatography and measured by liquid scintillatiton spectroscopy. Inhibition of 5-lipoxygenase activity was calculated as the ratio of the amounts of product formed in the presence and absence of inhibitor.
(§2) The inhibitory activities of the compounds of this invention against 12- and 15-lipoxygenase can be determined in the foregoing assay in which 12-lipoxygenase obtained from human platelets, or 15-lipoxygenase obtained from soybean, is substituted for the 5-lipoxygenase-containing cell supernatant fraction.

15-lipoxygenase = target: T2, 15-lipoxygenase (Glycine max, UniProt P08170); test: 15-lipoxygenase inhibition (15-lipoxygenase obtained from soybean); conditions: for inhibition at 10 µM: read-out: % Inhibition at Indicated Concentration, 15-lipoxygenase, 10 μM; for inhibition at 100 µM: read-out: % Inhibition at Indicated Concentration, 15-lipoxygenase, 100 μM
T2 construct: 15-lipoxygenase obtained from soybean; from tissue; host or cells: soybean
T2 sequence (P08170 1-839): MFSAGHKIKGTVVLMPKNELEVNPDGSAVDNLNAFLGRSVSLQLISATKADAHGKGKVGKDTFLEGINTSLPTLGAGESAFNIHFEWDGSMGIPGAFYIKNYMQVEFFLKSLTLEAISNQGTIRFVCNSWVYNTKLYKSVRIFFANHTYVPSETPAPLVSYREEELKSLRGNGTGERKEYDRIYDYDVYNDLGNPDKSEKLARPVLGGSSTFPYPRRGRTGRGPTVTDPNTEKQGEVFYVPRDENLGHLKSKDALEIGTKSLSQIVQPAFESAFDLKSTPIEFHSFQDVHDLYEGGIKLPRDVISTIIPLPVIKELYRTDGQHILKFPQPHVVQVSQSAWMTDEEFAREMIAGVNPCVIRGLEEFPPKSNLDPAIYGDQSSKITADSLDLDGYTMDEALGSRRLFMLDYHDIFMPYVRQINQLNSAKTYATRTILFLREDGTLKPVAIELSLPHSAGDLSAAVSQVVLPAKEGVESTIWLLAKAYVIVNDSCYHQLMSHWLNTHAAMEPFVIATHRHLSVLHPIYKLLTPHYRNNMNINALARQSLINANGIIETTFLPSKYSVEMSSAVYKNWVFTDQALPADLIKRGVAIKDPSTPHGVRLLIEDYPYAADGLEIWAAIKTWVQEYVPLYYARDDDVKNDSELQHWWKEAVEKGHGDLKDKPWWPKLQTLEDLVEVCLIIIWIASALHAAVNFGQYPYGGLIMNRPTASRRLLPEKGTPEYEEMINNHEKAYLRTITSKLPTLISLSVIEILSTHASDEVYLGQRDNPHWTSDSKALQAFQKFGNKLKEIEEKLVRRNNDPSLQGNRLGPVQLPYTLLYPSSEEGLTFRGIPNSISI
Method: as §1, §2

5-lipoxygenase = target: T3, 5-lipoxygenase (Rattus norvegicus, UniProt P12527); test: 5-Lipoxygenase IC50 determination (20,000×G supernatant of homogenized RBL-1 cells, radiolabeled arachidonic acid); conditions: RBL-1 cell 20,000×G supernatant
T3 construct: 20,000×G supernatant from 7.5×10^6 homogenized RBL-1 cells; endogenous in cells; host or cells: RBL-1 cells (20,000xG supernatant of homogenate)
T3 sequence (P12527 1-673): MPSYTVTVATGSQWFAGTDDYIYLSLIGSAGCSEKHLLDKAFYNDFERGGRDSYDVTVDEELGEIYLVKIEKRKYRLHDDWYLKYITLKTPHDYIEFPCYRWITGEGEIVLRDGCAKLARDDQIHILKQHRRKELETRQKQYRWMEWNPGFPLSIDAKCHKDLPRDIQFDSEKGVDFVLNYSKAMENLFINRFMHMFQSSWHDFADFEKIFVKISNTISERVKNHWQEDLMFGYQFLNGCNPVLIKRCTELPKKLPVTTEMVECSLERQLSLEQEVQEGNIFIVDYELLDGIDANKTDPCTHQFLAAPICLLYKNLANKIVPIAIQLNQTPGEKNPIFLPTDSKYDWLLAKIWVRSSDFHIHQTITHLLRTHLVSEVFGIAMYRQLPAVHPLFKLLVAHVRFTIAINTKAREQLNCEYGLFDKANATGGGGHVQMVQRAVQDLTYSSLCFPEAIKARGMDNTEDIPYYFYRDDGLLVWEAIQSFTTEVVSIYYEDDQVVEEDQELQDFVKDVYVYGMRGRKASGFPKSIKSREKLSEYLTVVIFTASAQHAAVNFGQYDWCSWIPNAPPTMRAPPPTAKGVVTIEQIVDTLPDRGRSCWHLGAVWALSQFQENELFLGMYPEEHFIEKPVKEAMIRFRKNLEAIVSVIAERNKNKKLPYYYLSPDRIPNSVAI
Method: Reactions were initiated by the addition of radiolabeled arachidonic acid and terminated by acidification and ether extraction. Reaction products were separated from nonconverted substrate by thin layer chromatography and measured by liquid scintillatiton spectroscopy. Inhibition of 5-lipoxygenase activity was calculated as the ratio of the amounts of product formed in the presence and absence of inhibitor. […]

| Structure (SMILES) | inhibition at 10 µM (12-lipoxygenase) | inhibition at 100 µM (12-lipoxygenase) | inhibition at 10 µM (15-lipoxygenase) | inhibition at 100 µM (15-lipoxygenase) | IC50 (5-lipoxygenase) |
| --- | --- | --- | --- | --- | --- |
| O=C(C=Cc1ccc2ccccc2c1)NO [Example 1, 3-(2-naphthyl)acrylohydroxamic acid] | 92% | 100% | 2% | 19% | – |
| CN(O)C(=O)C=Cc1ccc2ccccc2c1 [Example 2, N-methyl 3-(2-naphthyl)acrylohydroxamic acid] | 88% | – | 43% | 83% | 260 nM |
| CC(C)N(O)C(=O)C=Cc1ccc2ccccc2c1 [Example 3, N-isopropyl 3-(2-naphthyl)acrylohydroxamic acid] | 75% | 84% | 31% | 63% | 150 nM |
| O=C(C=Cc1ccc2ccccc2c1)N(O)C1CCCCC1 [Example 4, N-cyclohexyl 3-(2-naphthyl)acrylohydroxamic acid] | 66% | – | 43% | 83% | 260 nM |
| O=C(C=Cc1ccc2ccccc2c1)N(O)c1ccccc1 [Example 5, N-phenyl 3-(2-naphthyl)acrylohydroxamic acid] | 82% | – | 22% | 30% | 200 nM |
| CC(=Cc1ccc2ccccc2c1)C(=O)NO [Example 6, 2-methyl-3-(2-naphthyl)acrylohydroxamic acid] | – | – | 45% | 100% | – |
| CC(=Cc1ccc2ccccc2c1)C(=O)N(C)O [Example 7, 2,N-dimethyl-3-(2-naphthyl)acrylohydroxamic acid] | – | – | 37% | 88% | – |
| CN(O)C(=O)C(=Cc1ccc2ccccc2c1)c1ccccc1 [Example 8, N-methyl-3-(2-naphthyl)-2-phenyl acrylohydroxamic acid] | – | – | 38% | 62% | – |
| CN(O)C(=O)C(=Cc1ccc2ccccc2c1)c1ccc(Cl)cc1 [Example 10, N-methyl-3-(2-naphthyl)-2-(4-chlorophenyl)acrylohydroxamic acid] | 98% | – | – | – | – |
| CC(=CC(=O)N(C)O)c1ccc2ccccc2c1 [Example 12, 3,N-dimethyl-3-(2-naphthyl)acrylohydroxamic acid] | – | – | 37% | 88% | – |
| CN(O)C(=O)C=Cc1cc2ccccc2cc1[N+](=O)[O-] [Example 13, N-methyl-3-(3-nitro-2-naphthyl)acrylohydroxamic acid] | 81% | 97% | 19% | 49% | – |

Results, then the compound that gave them:

| inhibition at 10 µM (12-lipoxygenase) | inhibition at 100 µM (12-lipoxygenase) | inhibition at 10 µM (15-lipoxygenase) | inhibition at 100 µM (15-lipoxygenase) | IC50 (5-lipoxygenase) | Structure (SMILES) |
| --- | --- | --- | --- | --- | --- |
| 93% | 98% | 59% | 65% | 510 nM | CCCCCC=Cc1ccc2ccc(C=CC(=O)N(C)O)cc2c1 [Example 14, N-methyl-3-[7-(1-heptenyl)-2-naphthyl]acrylohydroxamic acid] |
| 82% | 100% | 29% | 88% | 200 nM | CN(O)C(=O)C=Cc1cccc2ccccc12 [Example 15, N-methyl-3-(1-naphthyl)acrylohydroxamic acid] |
| – | – | – | – | 130 nM | CN(O)C(=O)C=Cc1ccc([N+](=O)[O-])c2ccccc12 [Example 16, N-methyl-3-(4-nitro-1-naphthyl)acrylohydroxamic acid] |
| – | – | – | – | 1600 nM | O=C(CCC/C=C\c1ccc2ccccc2c1)NO [Example 17, Z-6-(2-naphthyl)hex-5-enohydroxamic acid] |
| – | – | 12% | 31% | 9700 nM | O=C(CCc1ccc2ccccc2c1)NO [Example 18, 3-(2-naphthyl)propiohydroxamic acid] |
| 82% | 99% | 19% | 33% | 2900 nM | Cc1ccc2ccc(CCC(=O)NO)cc2c1 [Example 19, 3-(7-methyl-2-napthalene)propiohydroxamic acid] |
